Measured values as given in ChEMBL document CHEMBL1130277, “Three-dimensional quantitative structure-activity relationships from molecular similarity matrices and genetic neural networks. 2. Applications” (J Med Chem, 1997).

These compounds were tested on Leishmania amazonensis (assay: Inhibition on leishmania mexicana amazonensis.).
Assay type: functional, organism-based
COc1cc(C(=N)N)ccc1OCCCOc1ccc(C(=N)N)cc1OC showed an IC50 of 1790 µM.
For N=C(N)c1ccc(OCCCCOc2ccc(C(=N)N)cc2N)c(N)c1, the IC50 was 7570 µM.
COc1cc(C2=NCCN2)ccc1OCCCCCOc1ccc(C2=NCCN2)cc1OC gave an IC50 of 4040 µM.
N=C(N)c1ccc(OCCCCCCOc2ccc(C(=N)N)cc2)cc1 [HEXAMIDINE] gave an IC50 of 396 µM.
Work on COc1cc(C2=NCCN2)ccc1OCCCOc1ccc(C2=NCCN2)cc1OC yielded an IC50 of 2260 µM.
In the case of N=C(N)c1ccc(OCCOc2ccc(C(=N)N)cc2N)c(N)c1, the IC50 is reported as 22600 µM.
N=C(N)c1cccc(OCCCCCCOc2cccc(C(=N)N)c2)c1 gave an IC50 of 1040 µM.
N=C(N)c1ccc(OCCCCCOc2ccc(C(=N)N)cc2[N+](=O)[O-])c([N+](=O)[O-])c1 gave an IC50 of 2000 µM.
Work on N=C(N)c1ccc(NCCCCNc2ccc(C(=N)N)cc2N)c(N)c1 yielded an IC50 of 7870 µM.
N=C(N)c1ccc(OCCCCOc2ccc(C(=N)N)cc2)cc1 gave an IC50 of 1590 µM.
With N=C(N)c1ccc(NCCCCCCNc2ccc(C(=N)N)cc2)cc1 the IC50 was 289 µM.
Compound c1cc(C2=NCCN2)ccc1OCCCCOc1ccc(C2=NCCN2)cc1 has an IC50 of 2710 µM.
N=C(N)c1ccc(OCCCCCOc2ccc(C(=N)N)cc2Br)c(Br)c1 showed an IC50 of 678 µM.
c1cc(C2=NCCN2)ccc1OCCCOc1ccc(C2=NCCN2)cc1 gave an IC50 of 1770 µM.
COc1cc(C2=NCCN2)ccc1OCCCCOc1ccc(C2=NCCN2)cc1OC was tested, and the IC50 was 6410 µM.
With N=C(N)c1ccc(OCCCCOc2ccc(C(=N)N)cc2Cl)c(Cl)c1 the IC50 was 1330 µM.
N=C(N)c1ccc(OCCCOc2ccc(C(=N)N)cc2N)c(N)c1 showed an IC50 of 3500 µM.
In the case of N=C(N)c1ccc(OCCCOc2ccc(C(=N)N)cc2)cc1 [PROPAMIDINE], the IC50 is reported as 851 µM.
In the case of COc1cc(C(=N)N)ccc1OCCCCCOc1ccc(C(=N)N)cc1OC, the IC50 is reported as 3030 µM.
In the case of N=C(N)c1ccc(NCCCNc2ccc(C(=N)N)cc2)cc1, the IC50 is reported as 687 µM.
N=C(N)c1ccc(NCCCCCNc2ccc(C(=N)N)cc2)cc1 gave an IC50 of 558 µM.
COc1cc(C(=N)N)ccc1OCCCCOc1ccc(C(=N)N)cc1OC gave an IC50 of 10000 µM.
N=C(N)c1ccc(OCCCCOc2ccc(C(=N)N)cc2[N+](=O)[O-])c([N+](=O)[O-])c1 gave an IC50 of 5600 µM.
For N=C(N)c1ccc(NCCNc2ccc(C(=N)N)cc2N)c(N)c1, the IC50 was 26200 µM.
In the case of N=C(N)c1ccc(NCCCCCCNc2ccc(C(=N)N)cc2N)c(N)c1, the IC50 is reported as 991 µM.
N=C(N)c1ccc(NCCCCCNc2ccc(C(=N)N)cc2[N+](=O)[O-])c([N+](=O)[O-])c1 showed an IC50 of 1130 µM.
For N=C(N)c1ccc(OCCCCCOc2ccc(C(=N)N)cc2Cl)c(Cl)c1, the IC50 was 703 µM.
In the case of N=C(N)c1cccc(OCCCCCOc2cccc(C(=N)N)c2)c1, the IC50 is reported as 2130 µM.
For N=C(N)c1cccc(OCCCCOc2cccc(C(=N)N)c2)c1, the IC50 was 5430 µM.
c1cc(C2=NCCN2)ccc1OCCCCCOc1ccc(C2=NCCN2)cc1 showed an IC50 of 1720 µM.
N=C(N)c1ccc(OCCOc2ccc(C(=N)N)cc2[N+](=O)[O-])c([N+](=O)[O-])c1 showed an IC50 of 50000 µM.
With N=C(N)c1ccc(NCCCNc2ccc(C(=N)N)cc2[N+](=O)[O-])c([N+](=O)[O-])c1 the IC50 was 4830 µM.
Compound N=C(N)c1ccc(OCCCCCOc2ccc(C(=N)N)cc2)cc1 [PENTAMIDINE] has an IC50 of 820 µM.
Work on N=C(N)c1ccc(NCCCCNc2ccc(C(=N)N)cc2)cc1 yielded an IC50 of 671 µM.
N=C(N)c1cccc(OCCCOc2cccc(C(=N)N)c2)c1 was tested, and the IC50 was 6100 µM.
N=C(N)c1ccc(OCCOc2ccc(C(=N)N)cc2)cc1 gave an IC50 of 15800 µM.
For N=C(N)c1ccc(NCCCCCNc2ccc(C(=N)N)cc2N)c(N)c1, the IC50 was 1160 µM.

These compounds were tested against GABA-A receptor; anion channel.
Description: Inhibition on Benzodiazepine receptor
With CCOC(=O)c1cc2c(cn1)oc1ccccc12 the pIC50 was 5.07.
CCCC(=O)c1cc2c(cn1)[nH]c1ccccc12 was tested, and the pIC50 was 7.64.
For CC(C)(C)OC(=O)c1cc2c3ccccc3nc-2c[nH]1, the pIC50 was 8.
CCOc1cc2c(cn1)[nH]c1ccccc12 showed a pIC50 of 7.62.
Work on CCC(C)Oc1cc2c3ccccc3nc-2c[nH]1 (stereo unspecified) yielded a pIC50 of 6.33.
In the case of Cc1ccc2c(c1)[nH]c1c3c4ccccc4nc-3c[nH]c12, the pIC50 is reported as 8.1.
With COc1cccc2[nH]c3c4c5ccccc5nc-4c[nH]c3c12 the pIC50 was 6.6.
For Cc1cccc2[nH]c3c4c5ccccc5nc-4c[nH]c3c12, the pIC50 was 5.16.
For CCOC(=O)c1cc2c(cn1)nc(O)c1ccccc12, the pIC50 was 5.62.
With COc1cc2c(cn1)[nH]c1ccccc12 the pIC50 was 6.91.
With CCCCOc1cc2c(cn1)[nH]c1ccccc12 the pIC50 was 7.01.
Clc1cccc2[nH]c3c4c5ccccc5nc-4c[nH]c3c12 gave a pIC50 of 6.15.
Work on Cn1c2ccccc2c2c3[nH]c4ccccc4c3ncc21 yielded a pIC50 of 5.93.
In the case of c1ccc2c(c1)[nH]c1cnccc12 [NORHARMANE], the pIC50 is reported as 5.79.
Work on CCOC(=O)c1cc2c(cn1)Cc1ccccc1-2 yielded a pIC50 of 6.17.
Work on CC(C)COc1cc2c(cn1)[nH]c1ccccc12 yielded a pIC50 of 7.03.
CCc1nc(C(=O)OC)cc2c1[nH]c1ccccc12 showed a pIC50 of 5.12.
Compound CCOC(=O)c1cc2c(cn1)sc1ccccc12 has a pIC50 of 5.77.
Cc1nccc2c1[nH]c1ccccc12 [HARMAN] gave a pIC50 of 4.91.
With O=C1C2C=Nc3ccccc3C2=NN1c1ccc(Cl)cc1 (stereo unspecified) [CGS-9896] the pIC50 was 9.22.
CC(C)CCOc1cc2c3ccccc3nc-2c[nH]1 gave a pIC50 of 6.37.
c1ccc2c(c1)[nH]c1c2ncc2[nH]c3ccccc3c21 was tested, and the pIC50 was 8.4.
With CC(C)Oc1cc2c(cn1)[nH]c1ccccc12 the pIC50 was 6.29.
For Cc1ccc2[nH]c3c4c5ccccc5nc-4c[nH]c3c2c1, the pIC50 was 6.65.
